One may read the Cmax as the peak of the concentration-time curve.

Data set [1] in a line: AUC (0 to tau) in human plasma at 200 mg qd for 4 days. The data set is classed as ADME, organism-based.
A short description of data set [2]: Cmax in human plasma at 200 mg qd for 4 days. The data set is classed as ADME, organism-based. Set-up: dose 200 mg.

`CC(=O)N1CCN(c2ccc(OCC3COC(Cn4ccnc4)(c4ccc(Cl)cc4Cl)O3)cc2)CC1` (configuration not stated) [KETOCONAZOLE] gave an AUC tau at 96 h in data set [1] of 16600 ng·h/mL. Moreover, the peak concentration (Cmax) in data set [2] turned out to be 3770 ng/mL.
